Source: PubChem BioAssay (NCI)
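96-well plates; 48 h exposure; 5 concentrations. Endpoints by linear interpolation between flanking doses. Not reached: highest tested concentration assigned. GI50: concentration for 50% inhibition of growth. At the TGI there is no net growth.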

Tests used:
Assay in all cases: DTP human tumour cell line panel, 48 h
[1] = test system: A498 renal
[2] = test system: CCRF-CEM leukemia
[3] = test system: COLO 205 colon
[4] = test system: EKVX NSCLC
[5] = test system: K-562 leukemia
[6] = test system: KM12 colon
[7] = test system: LOX IMVI melanoma
[8] = test system: NCI-H460 lung
[9] = test system: SNB-75 CNS
[10] = test system: TK-10 renal

SMILES	GI50 [1]	TGI [1]	GI50 [2]	TGI [2]	GI50 [3]	TGI [3]	GI50 [4]	TGI [4]	GI50 [5]	TGI [5]	GI50 [6]	TGI [6]	GI50 [7]	TGI [7]	GI50 [8]	TGI [8]	GI50 [9]	TGI [9]	GI50 [10]	TGI [10]
O=C1c2cccc3c(N4CCN(c5ccc6c7c(cccc57)C(=O)N(CCN5CCNCC5)C6=O)CC4)ccc(c23)C(=O)N1CCN1CCNCC1	17.3 µM	36.4 µM	3.09 µM	18.4 µM	8.87 µM	> 100 µM	20.9 µM	47.1 µM	2.78 µM	8.29 µM	12 µM	30.5 µM	6.57 µM	25.4 µM	12.5 µM	80 µM	17.4 µM	33.8 µM	14.7 µM	33.4 µM
O=C(Oc1ccc([N+](=O)[O-])cc1)N1CCC(C(O)(c2ccc3c(c2)OCO3)c2ccc3c(c2)OCO3)CC1	> 100 µM	> 100 µM	> 100 µM	> 100 µM	> 100 µM	> 100 µM	> 100 µM	> 100 µM	> 100 µM	> 100 µM	> 100 µM	> 100 µM	> 100 µM	> 100 µM	> 100 µM	> 100 µM	> 100 µM	> 100 µM	> 100 µM	> 100 µM
CC(C)(C)C1CCC2c3c([nH]c4ccccc34)C3C(=O)N(c4ccc(Br)cc4)C(=O)C3C2C1 (configuration not stated)		52.3 µM		39.8 µM		23.3 µM		63.2 µM		43.5 µM		53.8 µM		29.2 µM		38.9 µM		54.8 µM		42 µM
O=C(O)[C@@H]1C[C@@H](O)CN1		> 100 µM		> 100 µM		> 100 µM		> 100 µM		> 100 µM		> 100 µM		> 100 µM		> 100 µM		> 100 µM		> 100 µM
COc1ccc(C(=O)C(C(=O)C(=O)Nc2nc3ccc(OC)cc3s2)c2ccc(OC)cc2)cc1 (configuration not stated)		> 100 µM		> 100 µM		> 100 µM		> 100 µM		> 100 µM		> 100 µM		> 100 µM		> 100 µM		> 100 µM		> 100 µM
O=C1CCC(=O)c2cc(Br)ccc2N1		> 100 µM		> 100 µM		> 100 µM		> 100 µM		> 100 µM		> 100 µM		> 100 µM		> 100 µM		> 100 µM		> 100 µM
CC(=O)Nc1ccc(/C=c2\sc3nnc(/C=C/c4ccccc4)n3c2=O)cc1		> 50 µM		> 50 µM		> 50 µM		> 50 µM		> 50 µM		> 50 µM		> 50 µM		> 50 µM		> 50 µM		> 50 µM
C=CC(=O)Nc1cc2c(Nc3ccc(OCc4ccccn4)c(Cl)c3)ncnc2cc1OCCN1CCOCC1	1.48 µM	7.23 µM	2.98 µM	> 100 µM	6.19 µM	> 100 µM	0.775 µM	> 73.2 µM	2.79 µM	> 100 µM	5.04 µM	> 100 µM	1.81 µM	5.83 µM	4.28 µM	> 100 µM	2.09 µM	> 74.3 µM	0.0267 µM	> 100 µM
Nc1ccc(-c2ccc(-c3nc4ccccc4[nH]3)cc2)cc1	33.6 µM	> 100 µM	2.77 µM	> 78.7 µM	0.32 µM		1.47 µM	> 78.2 µM	0.117 µM	> 100 µM	< 0.0248 µM	> 66.8 µM		> 100 µM	0.196 µM	> 65.1 µM	27.8 µM	69.4 µM		> 100 µM
COc1cc(/C=C2\C(=O)N(c3c(Cl)cccc3Cl)c3ccccc32)cc(OC)c1O	5.59 µM	16.1 µM	0.555 µM	19.9 µM	5.94 µM	18.7 µM	5.23 µM	25.1 µM	0.243 µM	> 66.6 µM	0.654 µM	2.69 µM	0.303 µM	4.65 µM	0.342 µM	4.58 µM	1.03 µM	17 µM	1.21 µM	15.6 µM
CCC(=S)N(C)O		> 100 µM		12.3 µM		> 79 µM		> 100 µM		> 79.8 µM		> 93.1 µM		51.8 µM		70.3 µM		> 95.4 µM		> 95.3 µM
